Measurements reported in patent US20160025753A1, “ASSAY FOR CANNABINOIDS AND METHODS OF USE THEREOF” (priority 2014, published 2016).
“And” between values parts separate entries of the source, which are not always exact repeats. Equal values may be shown once. Read-outs that look alike come from different tables or passages of the source.

Legend:
[1] = biological target: T1, human cannabinoid receptor 1 membrane preparation (Homo sapiens, UniProt P21554); format: binding
T1 construct: purchased EMD Millipore
T1 sequence (P21554 whole entry): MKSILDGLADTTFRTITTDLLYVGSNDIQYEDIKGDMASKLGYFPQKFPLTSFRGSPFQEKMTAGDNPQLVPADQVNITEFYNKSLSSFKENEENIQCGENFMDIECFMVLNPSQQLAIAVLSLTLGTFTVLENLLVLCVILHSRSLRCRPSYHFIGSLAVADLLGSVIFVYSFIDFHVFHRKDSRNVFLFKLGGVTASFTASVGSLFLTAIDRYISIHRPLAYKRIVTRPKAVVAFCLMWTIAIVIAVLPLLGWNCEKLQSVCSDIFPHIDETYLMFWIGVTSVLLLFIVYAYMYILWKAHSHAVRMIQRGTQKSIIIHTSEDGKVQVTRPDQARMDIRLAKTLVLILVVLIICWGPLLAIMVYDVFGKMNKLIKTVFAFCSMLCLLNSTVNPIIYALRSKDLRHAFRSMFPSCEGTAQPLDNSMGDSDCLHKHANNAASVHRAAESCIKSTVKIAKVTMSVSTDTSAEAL

[2] = biological target: T2, CB1 human recombinant protein (Homo sapiens, UniProt P21554); assay: Heterogeneous competitive plate assay, Δ9-THC conjugate coated 96-well plate, anti-CB1 antibody/HRP detection (Example 3)
T2 sequence (P21554 whole entry): as above

[3] = biological target: T2, CB1 human recombinant protein; format: binding; design: purchased Abnova
CB2 receptors = CB2 receptors (Homo sapiens, UniProt P34972); conditions: background statement; cited from earlier work
CB2 receptors, sequence (P34972 whole entry): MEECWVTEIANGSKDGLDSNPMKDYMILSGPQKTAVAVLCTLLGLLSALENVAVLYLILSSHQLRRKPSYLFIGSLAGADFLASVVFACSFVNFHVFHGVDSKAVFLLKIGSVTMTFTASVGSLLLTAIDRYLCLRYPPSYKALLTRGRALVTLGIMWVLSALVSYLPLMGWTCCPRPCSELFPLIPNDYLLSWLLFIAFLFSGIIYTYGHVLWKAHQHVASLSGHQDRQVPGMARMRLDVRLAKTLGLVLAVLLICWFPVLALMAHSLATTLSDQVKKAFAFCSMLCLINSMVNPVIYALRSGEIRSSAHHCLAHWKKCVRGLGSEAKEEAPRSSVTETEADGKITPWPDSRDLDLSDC

## CCCCCCCC(C)(C)c1ccc([C@H]2CCC[C@@H](O)C2)c(O)c1 [Cannabicyclohexanol]
[1]; 1 μg/mL sample, excitation 535 nm, emission 610 nm, no cannabinoids 47,934
  Relative Fluorescent Units (RFU): 20,667 RFU
[1]; 1 μg/mL solution of each
  Detection by the assay (in words): comparable response

## CCCCCCC(C)(C)c1cc(O)c2c(c1)OC(C)(C)[C@@H]1CC=C(CO)C[C@@H]21 [HU-210]
[1]
  Detection by the assay (in words): comparable response
  Relative Fluorescent Units (RFU): 21,014 RFU
[2]; sample containing 100 ng/ml
  Inhibition of absorbance at 450 nm (in words): significant inhibition of absorbance
[2]; with 100 ng/mL HU-210, average of 6 replicates, no cannabinoid blank 2.279
  Average Absorbance @ 450 nm: 1.480
[2]; with 100 ng/mL HU-210, single replicates, no cannabinoid blank average 2.279
  Absorbance @ 450 nm: 1.435 and 1.480 and 1.416 and 1.602 and 1.379 and 1.569

## CCCCCn1cc(C(=O)c2cccc3ccccc23)c2cc(O)ccc21 [JWH-018 5-hydroxyindole metabolite]
[3]; 100 ng/mL test sample, FIG. 8
  Signal inhibition (relative absorbance at 450 nm): showed less signal inhibition

## CCCCCn1cc(C(=O)c2cccc3ccccc23)c2ccccc21 [JWH-018]
[1]
  Detection by the assay (in words): comparable response
  Relative Fluorescent Units (RFU): 22,299 RFU
[3]
  Signal inhibition (relative absorbance at 450 nm): demonstrated signal inhibition

## C=C(C)[C@@H]1CCC(C)=C[C@H]1c1c(O)cc(CCCCC)cc1O [cannabidiol, Cannabidiol]
CB2 receptors
  Affinity for CB2 receptors: low affinity
